In patent US20240309090A1, “MODULATION OF ANDROGEN SIGNALING TO INNATE IMMUNE KILLING OF PROSTATE CANCER” (Brown University, priority 2023, published 2024):

Key:
Type in all cases: cell-based
[1] = system: NK-92 cells; assay: NK cell viability assay (CellTiterGlo); settings: NK cells alone, doses used in co-culture
Method: For NK cell viability assays, 5×10^3 cells were plated in a 96-well plate, and viability (72h) was measured using a CellTiterGlo assay.

[2] = system: 22Rv1; assay: Co-culture of 22Rv1 with NK-92 cells, immune-mediated tumor cell killing
Method: (§1) They were co-treated with enzalutamide ([…]) or darolutamide (20 μM) for 48 h. Doses of AR inhibitors (ARi) used in the co-culture experiments were based on previous IC50 experiments. […] The immune-mediated effect of NK-92 on the PCa cell lines in the presence of enzalutamide (immune enhancement death) was normalized to baseline immune and tumor cell killing in each condition [(tumor cells+immune cells)-tumor baseline death=baseline immune death]. […] Cytokine analysis was performed to investigate the activation phenotype of NK cells when treated with ARi.
(§2) Prostate cancer cell lines were dyed with the blue CMAC live-cell dye (Thermo Fisher Scientific #C2110, per manufacturer protocol). Blue-fluorescent cancer cells were plated at a density of 10,000 cells per well of a 48-well plate. NK-92 cells were dyed with green CMFDA (Cayman Chemical Company #19583, per manufacturer protocol). Green-fluorescent NK-92 cells were added to the blue-fluorescent cancer cells at a 1:1 ratio. Enzalutamide (10 μM), darolutamide (20 μM), and 1 μM ethidium homodimer (EthD-1) were added at the same time as the NK cells. After 24 hours of co-culture, images of live cancer cells, live NK cells, and dead cells were taken using a fluorescent microscope. The co-culture experiments were run with internal control conditions and as a single treatment. Normalization was performed after analysis to take baseline death conditions into each experiment run. […] Cell adhered over 24 h, and when patient-derived NK cells were added, a control well was trypsinized, and cells resuspended and counted to adjust a 1:1 ratio before treatment addition. […]
(§3) Live cancer cells, NK cells, and dead cells were quantified using FIJI (Fiji Is Just ImageJ) software for images derived from fluorescent co-culture images. Images from the ImageXpress system were quantified using MetaXpress cytoplasmic/nuclear staining software. The percent of dead tumor cells in each well was quantified, and this percentage was normalized by subtracting baseline death from cancer cell-only wells, NK cell-only wells, or both.

[3] = system: LNCaP; assay: Co-culture of LNCaP with NK-92 cells, immune-mediated tumor cell killing
Method: as §1, §2, §3

[4] = system: PC3; assay: Co-culture of PC3 with NK-92 cells, immune-mediated tumor cell killing; settings: PC3 + NK-92 1:1, 24 hours
Method: as §1
(§4) Prostate cancer cell lines were dyed with the blue CMAC live-cell dye (Thermo Fisher Scientific #C2110, per manufacturer protocol). […] Cell adhered over 24 h, and when patient-derived NK cells were added, a control well was trypsinized, and cells resuspended and counted to adjust a 1:1 ratio before treatment addition. […]
as §3

[5] = system: DU145; assay: Co-culture of DU145 with NK-92 cells, immune-mediated tumor cell killing; settings: DU145 + NK-92 1:1, 24 hours
Method: as §1, §4, §3

CNC(=O)c1ccc(N2C(=S)N(c3ccc(C#N)c(C(F)(F)F)c3)C(=O)C2(C)C)cc1F [enzalutamide]
NK cell viability [1]: noncytotoxic
cell death rate (NK cell-mediated tumor killing) ([2]; 22Rv1 + NK-92 1:1, 24 hours): 52.67±8.96%
NK cell killing of PCa cells (immune enhancement) ([2]; 22Rv1 + NK-92 1:1, enzalutamide 10 μM, FIG. 15B): 34.84%
cell death rate (NK cell-mediated tumor killing) ([3]; LNCaP + NK-92 1:1, 24 hours): 48.3%
NK cell killing of PCa cells (immune enhancement) ([3]; LNCaP + NK-92 1:1, enzalutamide 10 μM, FIG. 15A): 35.32%
cell death rate (NK cell-mediated tumor killing) [4]: 11.05±4.6%
cell death rate (NK cell-mediated tumor killing) [5]: 34.8±4.92%
